Source: PubChem BioAssay AID504657 (Sanford-Burnham Center for Chemical Genomics, 2011)
Calls of active or inactive are those of the source. How the calls were made is not given here.

System: S. cerevisiae tim10-1 mutant, luminescence counterscreen
Assay: tim10-1 yeast luminescent signal inhibition – luminescence, S. cerevisiae, uHTS hits, counter-screen for tim23-1 inhibitor project, dose response (AID 504657)

Row | SMILES | IC50
1 | CCOC(=O)c1sc(=NC(=O)c2ccco2)n(C)c1C | > 100 µM (inactive)
2 | COc1ccc(/C=C/C(=O)Nc2ccc3c(c2)CCC3)cc1OC | > 100 µM (inactive)
3 | CCOC(=O)c1ccc(NC(=O)CSc2nc(=O)n3cccc(C)c3n2)cc1 | > 100 µM (inactive)
4 | O=C(Nc1ccc(-c2cn3c(n2)SCC3)cc1)c1ccco1 | > 100 µM (inactive)
5 | C(=C\c1ccccc1)/C=N/Nc1nc2ccccc2[nH]1 | > 100 µM (inactive)
6 | CSc1nnc(C(C)(C)C)c(=O)n1/N=C/c1ccccc1 | > 100 µM (inactive)
7 | CC(C)OC(=O)c1cccnc1SCc1cc(=O)n2ccccc2n1 | > 100 µM (inactive)
8 | O=c1cc(C(Cl)(Cl)Cl)oc2c1ccc1ccccc12 | > 100 µM (inactive)
9 | Oc1ccc(Oc2ccc(Oc3ccc(O)cc3)cc2)cc1 | > 100 µM (inactive)
10 | O=c1oc(Cl)c(Cl)c2ccccc12 | > 100 µM (inactive)
11 | N#Cc1c(-c2ccccc2)cc(-c2ccc(O)cc2)nc1N | > 100 µM (inactive)
12 | COc1ccc(C(=O)N/N=C\c2coc3ccc(Cl)cc3c2=O)cc1 | > 100 µM (inactive)
13 | CCn1c(N2CCN(S(=O)(=O)c3ccc(OC)cc3)CC2)nc2ccccc21 | > 100 µM (inactive)
14 | O=C(N/N=C/c1coc2ccc(Cl)cc2c1=O)c1ccncc1 | > 100 µM (inactive)
15 | Cc1ccc2[nH]cc(C(=O)CCl)c2c1 | > 100 µM (inactive)
16 | Cc1nc2scc(C)n2c(=O)c1S(=O)(=O)Nc1ccc(N2CCOCC2)cc1 | > 100 µM (inactive)
17 | O=c1c(O)c(-c2ccccc2)oc2cc(O)cc(O)c12 | > 100 µM (inactive)
18 | CC(C)Cn1cnc2c(c(-c3ccccc3)c(-c3ccccc3)n2Cc2ccco2)c1=N | > 100 µM (inactive)
19 | Cc1ccc2nc(N3C(=O)CNC3=S)sc2c1 | > 100 µM (inactive)
20 | O=C(CSc1cccc[n+]1[O-])Nc1ccccc1Oc1ccccc1 | > 100 µM (inactive)
21 | Cc1cc2cc(CNC(=O)c3ccc(C)c([N+](=O)[O-])c3)ccc2[nH]1 | > 100 µM (inactive)
22 | O=C(N/N=C/C=C\c1ccco1)c1cccs1 | > 100 µM (inactive)
23 | CN1CCc2nc3sc(C(=O)C45CC6CC(CC(C6)C4)C5)c(N)c3cc2C1 | > 100 µM (inactive)
24 | O=C(/C=C/c1ccccc1Cl)Nc1ccccc1 | > 100 µM (inactive)
25 | O=C1OC(c2ccccc2)=N/C1=C\C=C\c1ccco1 | > 100 µM (inactive)

Row | SMILES | IC50
26 | N#C/C(=C/c1ccc(N2CCOCC2)o1)c1nc2ccccc2[nH]1 | > 100 µM (inactive)
27 | CC(C)(C)c1csc(NC(=O)c2ccc(Cl)s2)n1 | > 100 µM (inactive)
28 | CCCN(C(=O)c1ccc([N+](=O)[O-])c(C)c1)c1c(N)n(Cc2ccccc2)c(=O)[nH]c1=O | > 100 µM (inactive)
29 | C=C1CCc2c([nH]c3ccc(OCC(C)C)cc23)C1=O | > 100 µM (inactive)
30 | O=C(Nc1nc2ccccc2s1)C1CCCN1S(=O)(=O)c1ccc(Cl)cc1 (stereo not given) | > 100 µM (inactive)
31 | Cc1ccc(Nc2nc(-c3cccnc3)nc3ccccc23)cc1 | > 100 µM (inactive)
32 | Cc1nc2scc(C)n2c(=O)c1S(=O)(=O)Nc1ccc(OC(F)(F)F)cc1 | > 100 µM (inactive)
33 | Oc1ccccc1C1NN=C(c2ccccc2)S1 (stereo not given) | > 100 µM (inactive)
34 | Cc1ccc(-c2nn(-c3ccccc3)cc2NC(=O)CCl)cc1 | > 100 µM (inactive)
35 | COc1ccc2c(c1)sc1nc(-c3ccccc3)cn12 | > 100 µM (inactive)
36 | CCN(CC)S(=O)(=O)c1ccc(C(=O)OCn2nnc3ccccc3c2=O)cc1 | > 100 µM (inactive)
37 | O=C(N/N=C/c1coc2ccc(Cl)cc2c1=O)c1cc(O)cc(O)c1 | > 100 µM (inactive)
38 | CO/C(N)=C(\C#N)N=Cc1ccccc1Cl | > 100 µM (inactive)
39 | Cc1nc2ccc(C(C(F)(F)F)(C(F)(F)F)C(F)(F)F)cc2[nH]1 | > 100 µM (inactive)
40 | O=C(N/N=C/C(Cl)=C\c1ccccc1)c1cccs1 | > 100 µM (inactive)
41 | O=C(Nc1cc(-c2ccccc2)[nH]n1)c1ccccc1 | > 100 µM (inactive)
42 | N#C/C(=C\c1ccc(Cl)cc1)C(=O)Nc1cccnc1 | > 100 µM (inactive)
43 | O=C(Nc1ccc(-c2cn3ccccc3n2)cc1)c1cccs1 | > 100 µM (inactive)
44 | O=C(Nc1ccc2nc(-c3ccc(Br)o3)[nH]c2c1)c1cccs1 | > 100 µM (inactive)
45 | CCCCn1c(N)c(N(CCC(C)C)C(=O)c2ccc3c(c2)OCO3)c(=O)[nH]c1=O | > 100 µM (inactive)
46 | CCOC(=O)c1cccnc1SCc1cc(=O)n2ccccc2n1 | > 100 µM (inactive)
47 | CN(C)/C=C1/C=C(c2ccccc2)OC1=O | 94.1 µM
48 | Cc1ccc(CS(=O)(=O)c2ncc(Cl)c(C(=O)Nc3ccc(OC(F)F)cc3)n2)cc1 | > 100 µM (inactive)
49 | COc1cc2c(cc1OC)/C(=C/c1ccc(Cl)cc1)C(=O)OC2 | > 100 µM (inactive)
50 | Cc1cc(C)nc(SCC(=O)c2cc3ccccc3oc2=O)n1 | > 100 µM (inactive)
